Assay results: article PMC7150977, “Regional Intestinal Drug Permeability and Effects of Permeation Enhancers in Rat” (Pharmaceutics, 2020)
Where two headings read alike, the source gives them in different places. Values belong to the molecule of their own block, whether it stands above or below them.

Experiments:
[1] = First-pass extraction (Ffirstpass) in rat intestine and liver; assay type: in vivo; conditions: based on literature data, iv plasma CL and liver blood flow 47 mL/min/kg
[2] = test system: jejunum and colon; assay: Regional comparison (jejunum vs colon, pH 6.5 vs 7.4) of Peff in rat SPIP; assay type: in vivo; conditions: plasma appearance
Method: The ratio was compared using the paired student’s t-test with the Benjamini–Hochberg multiple t-test correction. Multiple comparisons between groups were performed using a two-way ANOVA with a post-hoc Holm–Sidak multiple comparison test. Log transformation of values was performed when the original measured data were heteroscedastic and not normally distributed; this was investigated using the Bartlett test. Differences were considered to be statistically significant for p-values < than 0.05.

[3] = test system: colon; conditions: control solutions, mean ±SD, n = 38
Method: A linear regression analysis of the plasma samples was made to obtain a corresponding plasma value for each perfusate sample. The blood-to-lumen CLCr-EDTA was calculated using Equation (1) [16]. (1) CLCr−EDTA=Cperfusate × Qin/Cplasma × tissue weight ×100 where Cperfusate and Cplasma is the activity in the perfusate and plasma (cpm/mL), and Qin is the flow rate (mL/min). CLCr-EDTA was determined during the last 45 min for the control solution and during the last 60 min for the test solutions, of which the first 15 min of each period were for equilibration.

[4] = test system: jejunum; parameters: method as in PMID 31201856; conditions: rat jejunum SPIP, cited from earlier work
[5] = test system: jejunum; assay: Rat single-pass intestinal perfusion (SPIP), jejunal lumen-to-blood Peff from plasma appearance; assay type: in vivo; conditions: 100 µM, mean ±SD, n = 6
[6] = test system: jejunum and colon; conditions: human study; cited from earlier work
[7] = test system: colon; conditions: male, Han Wistar, rat, in vivo, 60 min, 100 µM
[8] = parameters: method as in PMID 9836611; conditions: n-octanol-water; cited from earlier work
[9] = test system: intestine; conditions: pH 6.5, rat SPIP model; cited from earlier work
[10] = test system: intestine; conditions: pH 6.5, human SPIP model; cited from earlier work
[11] = parameters: method as in patent wo2012080471, 6; conditions: dog, oral with permeation enhancer; ref patent wo2012080471, 6; cited from earlier work
[12] = Jejunum pH 6.5, control solution
[13] = Jejunum pH 7.4, control solution

Ffirstpass (first-pass extraction compensation value) [1]: 1.0
difference in jejunal and colonic basal Peff [2]: no differences
Molecule: CC(C)NCC(O)COc1ccc(CC(N)=O)cc1 (centres unmarked) [Atenolol, atenolol]

colonic CLCr-EDTA (blood-to-lumen clearance) [3]: 0.038 ± 0.050 mL/min/100 g
Molecule: O=C([O-])CN(CCN(CC(=O)[O-])CC(=O)[O-])CC(=O)[O-].[51Cr+3] [Cr-EDTA, ^51chromium-labeled ethylenediaminetetraacetate]

Plasma Appearance Peff [5, 12]: 0.005 ± 0.004 ×10^–4 cm/s
Plasma Appearance Peff [5, 13]: 0.004 ± 0.001 ×10^–4 cm/s
difference in jejunal and colonic basal Peff [2]: no differences
Molecule: C[C@H](N[C@@H](CCc1ccccc1)C(=O)O)C(=O)N1CCC[C@H]1C(=O)O [Enalaprilat, enalaprilat]
permeability from luminal disappearance compared to plasma appearance (times higher) ([4]; same rat): > 10 times

Molecule: CC(C(=O)O)c1cccc(C(=O)c2ccccc2)c1 (centres unmarked) [Ketoprofen, ketoprofen]
difference between permeability from luminal disappearance and plasma appearance [4]: no differences
difference between permeability from luminal disappearance and plasma appearance [6]: no differences

Molecule: COCCc1ccc(OCC(O)CNC(C)C)cc1 (centres unmarked) [Metoprolol, metoprolol]
difference between permeability from luminal disappearance and plasma appearance [4]: no differences
Plasma Appearance Peff ([7]; pH 6.5): 0.41 ± 0.19 ×10^–4 cm/s
Plasma Appearance Peff ([7]; pH 7.4): 0.38 ± 0.15 ×10^–4 cm/s
Plasma Appearance Peff [5, 12]: 0.28 ± 0.24 ×10^–4 cm/s
Plasma Appearance Peff [5, 13]: 0.17 ± 0.095 ×10^–4 cm/s
difference between permeability from luminal disappearance and plasma appearance [6]: no differences
Log P [8]: 2.07
Ffirstpass (first-pass extraction compensation value) [1]: 0.22

Molecule: CCCCCCCCCC(=O)[O-].[Na+] [caprate, sodium caprate]
permeation enhancing effect [9]: no permeation enhancing effect
permeation enhancing effect [10]: no permeation enhancing effect

Molecule: semaglutide
bioavailability [11]: 0.29 % of the oral dose
